Like-named read-outs stand apart in the source and are kept apart here.
How the values were obtained:
[1] = Food effect (high-fat, high-calorie meal) on pharmacokinetics, single 20 mg dose; assay type: in vivo, human; details: for Tmax / AUC(0-t) / AUC(0-inf) / Cmax: human, plasma, 20 mg; for Tmax: oral, single 20 mg; for AUC(0-t) / AUC(0-inf) / Cmax: po
Experimental: The effect of a high-fat, high-calorie meal on the pharmacokinetics of a compound of formula (II) was evaluated in an open-label, sequential fashion following a single 20 mg dose of formulation 5 in participants who had previously received a 20 mg dose of formulation 5 under fasted conditions.

hCav3.1 = target: T1, hCav3.1 (Homo sapiens, UniProt O43497); assay: PatchXpress patch clamp, voltage dependent block (half-inactivated state); assay type: cell-based
T1 construct: expressed in transfected cells; host or cells: HEK-293
T1 sequence (O43497 whole entry): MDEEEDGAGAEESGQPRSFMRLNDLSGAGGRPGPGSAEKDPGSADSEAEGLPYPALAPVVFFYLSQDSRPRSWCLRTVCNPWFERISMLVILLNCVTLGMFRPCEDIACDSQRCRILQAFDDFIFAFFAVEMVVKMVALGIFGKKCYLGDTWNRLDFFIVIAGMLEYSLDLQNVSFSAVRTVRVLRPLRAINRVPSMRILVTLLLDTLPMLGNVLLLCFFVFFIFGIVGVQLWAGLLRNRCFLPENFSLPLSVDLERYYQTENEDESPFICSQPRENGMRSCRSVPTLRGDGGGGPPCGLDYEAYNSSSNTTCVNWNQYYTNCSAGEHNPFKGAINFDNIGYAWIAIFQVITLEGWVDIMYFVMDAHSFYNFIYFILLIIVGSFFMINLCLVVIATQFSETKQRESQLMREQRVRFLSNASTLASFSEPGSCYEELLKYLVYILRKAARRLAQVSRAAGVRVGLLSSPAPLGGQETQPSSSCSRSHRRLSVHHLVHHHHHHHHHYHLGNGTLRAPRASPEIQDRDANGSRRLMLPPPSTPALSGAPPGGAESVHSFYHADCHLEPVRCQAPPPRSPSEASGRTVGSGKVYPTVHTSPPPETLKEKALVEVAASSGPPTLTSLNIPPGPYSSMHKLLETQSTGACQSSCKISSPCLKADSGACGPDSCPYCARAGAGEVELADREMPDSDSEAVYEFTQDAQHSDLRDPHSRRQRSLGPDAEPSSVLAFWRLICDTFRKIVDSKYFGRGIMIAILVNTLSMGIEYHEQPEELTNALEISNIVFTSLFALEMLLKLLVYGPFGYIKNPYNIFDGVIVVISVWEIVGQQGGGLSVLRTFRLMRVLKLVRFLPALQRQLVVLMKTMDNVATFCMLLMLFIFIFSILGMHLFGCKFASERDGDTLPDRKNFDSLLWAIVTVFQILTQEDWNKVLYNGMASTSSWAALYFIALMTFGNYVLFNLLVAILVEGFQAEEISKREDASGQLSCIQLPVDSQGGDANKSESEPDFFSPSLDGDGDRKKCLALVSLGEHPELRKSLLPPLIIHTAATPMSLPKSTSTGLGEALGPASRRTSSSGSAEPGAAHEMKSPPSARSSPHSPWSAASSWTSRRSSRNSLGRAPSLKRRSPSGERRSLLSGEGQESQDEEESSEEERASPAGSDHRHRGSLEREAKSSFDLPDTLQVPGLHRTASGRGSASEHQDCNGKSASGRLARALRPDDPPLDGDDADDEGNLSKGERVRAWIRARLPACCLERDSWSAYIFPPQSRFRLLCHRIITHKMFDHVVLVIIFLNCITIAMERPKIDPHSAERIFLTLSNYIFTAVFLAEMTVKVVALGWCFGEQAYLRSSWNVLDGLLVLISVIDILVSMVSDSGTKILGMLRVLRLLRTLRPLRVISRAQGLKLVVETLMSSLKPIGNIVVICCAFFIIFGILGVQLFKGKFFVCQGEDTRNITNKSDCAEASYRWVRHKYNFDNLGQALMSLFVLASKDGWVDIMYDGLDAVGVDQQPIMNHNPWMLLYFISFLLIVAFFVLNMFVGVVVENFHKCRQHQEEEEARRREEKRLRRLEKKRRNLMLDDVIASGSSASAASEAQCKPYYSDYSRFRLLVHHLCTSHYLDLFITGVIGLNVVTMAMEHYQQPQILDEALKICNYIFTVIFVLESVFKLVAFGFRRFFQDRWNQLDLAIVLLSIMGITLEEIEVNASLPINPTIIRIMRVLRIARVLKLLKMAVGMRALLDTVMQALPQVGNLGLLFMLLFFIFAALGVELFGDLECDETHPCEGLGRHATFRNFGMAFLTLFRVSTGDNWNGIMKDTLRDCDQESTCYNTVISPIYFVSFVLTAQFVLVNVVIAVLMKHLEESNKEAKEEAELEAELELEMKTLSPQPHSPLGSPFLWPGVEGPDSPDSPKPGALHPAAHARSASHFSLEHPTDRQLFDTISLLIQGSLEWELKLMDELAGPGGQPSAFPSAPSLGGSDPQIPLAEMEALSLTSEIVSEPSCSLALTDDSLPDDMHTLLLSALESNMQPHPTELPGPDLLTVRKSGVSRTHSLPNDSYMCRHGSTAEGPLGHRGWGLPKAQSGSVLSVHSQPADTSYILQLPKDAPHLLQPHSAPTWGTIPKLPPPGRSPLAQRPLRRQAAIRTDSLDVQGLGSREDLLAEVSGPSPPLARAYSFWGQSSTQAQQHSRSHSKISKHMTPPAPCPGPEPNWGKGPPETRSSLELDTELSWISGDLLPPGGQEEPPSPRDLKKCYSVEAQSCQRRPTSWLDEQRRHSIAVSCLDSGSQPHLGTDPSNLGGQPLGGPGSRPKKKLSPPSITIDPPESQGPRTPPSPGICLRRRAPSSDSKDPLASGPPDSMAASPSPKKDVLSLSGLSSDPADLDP

## CC(C)(C)NC(=O)CN1CCC(CNC(=O)c2cc(F)cc(Cl)c2)CC1.Cl [compound of formula (II), N-((1-(2-(tert-butylamino)-2-oxoethyl)piperidin-4-yl)methyl)-3-chloro-5-fluorobenzamide hydrochloride]
[1]; fasted
  Tmax: 4 h
[1]; high-fat, high-calorie meal
  Tmax: 5 h
[1]; single 20 mg oral dose, fasted, read-out: AUClast, Fasted Geometric Mean (Adjusted)
  AUC(0-t): 905 ng·h/mL
[1]; single 20 mg oral dose, fasted, read-out: AUC∞, Fasted Geometric Mean (Adjusted)
  AUC(0-inf): 942 ng·h/mL
[1]; single 20 mg oral dose, fasted, read-out: Cmax, Fasted Geometric Mean (Adjusted)
  Cmax: 43.6 ng/mL
[1]; single 20 mg oral dose, high-fat/high-calorie meal, read-out: AUClast, Fed Geometric Mean (Adjusted)
  AUC(0-t): 1040 ng·h/mL
[1]; single 20 mg oral dose, high-fat/high-calorie meal, read-out: AUC∞, Fed Geometric Mean (Adjusted)
  AUC(0-inf): 1080 ng·h/mL
[1]; single 20 mg oral dose, high-fat/high-calorie meal, read-out: Cmax, Fed Geometric Mean (Adjusted)
  Cmax: 64.7 ng/mL
[1]; single 20 mg oral dose
  AUClast Ratio (fed/fasted): 1.14
  AUC∞ Ratio (fed/fasted): 1.15
  Cmax Ratio (fed/fasted): 1.49
hCav3.1
  tonic block/voltage dependent block (TB/VDB) ratio: 3.8

— patent US20250295646A1, “METHODS OF USE OF T-TYPE CALCIUM CHANNEL MODULATORS” (Praxis Precision Medicines, Inc., priority 2022, published 2025)
